# Assay results reported in patent US12157730B2, “Heteroaryl derivative, method for producing same, and pharmaceutical composition comprising same as effective component” (VORONOI INC., priority 2019, dated 2024).
# Target: T1, Ba/F3 cell EGFR Exon20 ins NPH (Homo sapiens, UniProt P00533, INS773NPH)
# T1 construct: expressed in transfected cells; host or cells: Ba/F3
# Experiment: Ba/F3 cell proliferation suppression, EGFR Exon20 ins NPH
# Format: cell-based
# Conditions: GI50 class; Ba/F3 cell line with NPH inserted at Exon20 of EGFR; 72 hours
# Procedure, shortened: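 Cells (3000–5000/well) plated 24 h before compound, 12-point 3-fold dilutions at 0.3 nM to 50 um final; Ba/F3 lines grown with 5 ng/ml IL-3. Viability by CellTiter-Glo luminescence after 72 h, growth ratio vs control, GI50 from curves; triplicate.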
row,Compound,Ba/F3 (NPH) Activity
1,"C=CC(=O)Nc1cc(Nc2cc(N3OCC[C@@H]3c3cccc(Cl)c3Cl)ncn2)c(OC)cc1N1CC[C@@H](N(C)C)C1 [compound 526, N-(5-((6-((R)-3-(2,3-dichlorophenyl)isoxazolidine-2-yl)pyrimidine-4-yl)amino)-2-((R)-3-(dimethylamino)pyrolidine-1-yl)-4-methoxyphenyl) acrylamide]",A (GI50 < 50 nM)
2,"C=CC(=O)Nc1cc(Nc2cc(N3OCC[C@@H]3Cc3cccc(F)c3)ncn2)c(OC)cc1N1CCC(N2CCN(C3CC3)CC2)CC1 [compound 997, N-(2-(4-(4-cyclopropylpiperazine-1-yl)piperidine-1-yl)-5-((6-((S)-3-(3-fluorobenzyl)isoxazolidine-2-yl)pyrimidine-4-yl)amino)-4-methoxyphenyl) acrylamide]",A (GI50 < 50 nM)
3,"C=CC(=O)Nc1cc(Nc2cc(N3OCC[C@@H]3c3cccc(F)c3Cl)ncn2)c(OC)cc1N1CCN(C)CC1 [compound 552, N-(5-((6-((R)-3-(2-chloro-3-fluorophenyl)isoxazolidine-2-yl)pyrimidine-4-yl)amino)-4-methoxy-2-(4-methylpiperazine-1-yl)phenyl)acrylamide]",A (GI50 < 50 nM)
4,"C=CC(=O)Nc1cc(Nc2cc(N3OCC[C@@H]3c3cccc(Cl)c3Cl)ncn2)c(OC)cc1N1CCC(N2CCN(C3CCCC3)CC2)CC1 [Example 206, N-(2-(4-(4-cyclopentylpiperazine-1-yl)piperidine-1-yl)-5-((6-((R)-3-(2,3-dichlorophenyl)isoxazolidine-2-yl)pyrimidine-4-yl)amino)-4-methoxyphenyl) acrylamide]",B (50 nM ≤ GI50 < 500 nM)
5,"C=CC(=O)Nc1cc(Nc2cc(N3OCC[C@@H]3c3cc(F)ccc3F)ncn2)c(OC)cc1N1CCC(N2CC3CCC(C2)N3C2CC2)CC1 [Example 134, N-(2-(4-(8-cyclopropyl-3,8-diazabicyclo[3.2.1]octan-3-yl)piperidine-1-yl)-5-((6-((R)-3-(2,5-difluorophenyl)isoxazolidine-2-yl)pyrimidine-4-yl)amino)-4-methoxyphenyl) acrylamide]",A (GI50 < 50 nM)
6,"C=CC(=O)Nc1cc(Nc2cc(N3OCC[C@@H]3c3cccc(Cl)c3F)ncn2)c(OC)cc1N1CCC(N2CCOCC2)CC1 [compound 788, N-(5-((6-((R)-3-(3-chloro-2-fluorophenyl)isoxazolidine-2-yl)pyrimidine-4-yl)amino)-4-methoxy-2-(4-morpholinopiperidine-1-yl)phenyl)acrylamide]",A (GI50 < 50 nM)
7,"C=CC(=O)Nc1cc(Nc2cc(N3OCC[C@@H]3c3ccc(F)cc3F)ncn2)c(OC)cc1N1CCC(N2CCN(C3CCN(C)CC3)CC2)CC1 [compound 430, N-(5-((6-((R)-3-(2,4-difluorophenyl)isoxazolidine-2-yl)pyrimidine-4-yl)amino)-4-methoxy-2-(4-(4-(1-methylpiperidine-4-yl)piperazine-1-yl)piperidine-1-yl)phenyl)acrylamide]",A (GI50 < 50 nM)
8,"C=CC(=O)Nc1cc(Nc2cc(N3OCC[C@@H]3c3ccc(F)c(F)c3)ncn2)c(OC)cc1N1CCC(N2CCN(C(C)C)CC2)CC1 [compound 501, N-(5-((6-((R)-3-(3,4-difluorophenyl)isoxazolidine-2-yl)pyrimidine-4-yl)amino)-2-(4-(4-isopropylpiperazine-1-yl)piperidine-1-yl)-4-methoxyphenyl) acrylamide]",A (GI50 < 50 nM)
9,"C=CC(=O)Nc1cc(Nc2cc(N3OCC[C@@H]3c3cc(F)ccc3F)ncn2)c(OC)cc1N1C[C@H]2C[C@@H]1CO2 [compound 328, N-(2-((1R,4R)-2-oxa-5-azabicyclo[2.2.1]heptane-5-yl)-5-((6-((R)-3-(2,5-difluorophenyl)isoxazolidine-2-yl)pyrimidine-4-yl)amino)-4-methoxyphenyl) acrylamide]",A (GI50 < 50 nM)
10,"C=CC(=O)Nc1cc(Nc2cc(N3OCC[C@@H]3c3cccc(Cl)c3)ncn2)c(OC)cc1N1CCC(N2CCC(N(C)C)CC2)CC1 [compound 414, N-(5-((6-((R)-3-(3-chlorophenyl)isoxazolidine-2-yl)pyrimidine-4-yl)amino)-2-(4-(dimethylamino)-[1,4'-bipiperidine]-1'-yl)-4-methoxyphenyl) acrylamide]",A (GI50 < 50 nM)
11,"C=CC(=O)Nc1cc(Nc2cc(N3OCC[C@@H]3c3ccc(F)c(Cl)c3)ncn2)c(OC)cc1N(C)CCOC [compound 904, N-(5-((6-((R)-3-(3-chloro-4-fluorophenyl)isoxazolidine-2-yl)pyrimidine-4-yl)amino)-4-methoxy-2-((2-methoxyethyl)(methyl)amino)phenyl) acrylamide]",A (GI50 < 50 nM)
12,"C=CC(=O)Nc1cc(Nc2cc(N3OCC[C@@H]3c3cc(F)cc(F)c3)ncn2)c(OC)cc1N1CCC(N2CCN(C(C)CC)CC2)CC1 (stereo partly drawn) [compound 894, N-(2-(4-(4-(sec-butyl)piperazine-1-yl)piperidine-1-yl)-5-((6-((R)-3-(3,5-difluorophenyl)isoxazolidine-2-yl)pyrimidine-4-yl)amino)-4-methoxyphenyl) acrylamide]",A (GI50 < 50 nM)
13,"C=CC(=O)Nc1cc(Nc2cc(N3OCC[C@@H]3c3cccc(Cl)c3)ncn2)c(OC)cc1N1CCC(N2CC[C@@H](N(C)C)C2)CC1 [compound 413, N-(5-((6-((R)-3-(3-chlorophenyl)isoxazolidine-2-yl)pyrimidine-4-yl)amino)-2-(4-((R)-3-(dimethylamino)pyrolidine-1-yl)piperidine-1-yl)-4-methoxyphenyl) acrylamide]",A (GI50 < 50 nM)
14,"C=CCN1CCN(C2CCN(c3cc(OC)c(Nc4cc(N5OCC[C@@H]5c5cccc(F)c5F)ncn4)cc3NC(=O)C=C)CC2)CC1 [Example 209, N-(2-(4-(4-allylpiperazine-1-yl)piperidine-1-yl)-5-((6-((R)-3-(2,3-difluorophenyl)isoxazolidine-2-yl)pyrimidine-4-yl)amino)-4-methoxyphenyl) acrylamide]",A (GI50 < 50 nM)
15,"C=CC(=O)Nc1cc(Nc2cc(N3OCC[C@@H]3c3ccc(F)c(F)c3)ncn2)c(OC)cc1N1CCC(N2CCN(CCC)CC2)CC1 [compound 547, N-(5-((6-((R)-3-(3,4-difluorophenyl)isoxazolidine-2-yl)pyrimidine-4-yl)amino)-4-methoxy-2-(4-(4-propylpiperazine-1-yl)piperidine-1-yl)phenyl) acrylamide]",A (GI50 < 50 nM)
16,"C=CC(=O)Nc1cc(Nc2cc(N3OCC[C@@H]3c3ccc(Cl)cc3F)ncn2)c(OC)cc1N1CCC(N2CC[C@@H](N(C)C)C2)CC1 [compound 404, N-(5-((6-((R)-3-(4-chloro-2-fluorophenyl)isoxazolidine-2-yl)pyrimidine-4-yl)amino)-2-(4-((R)-3-(dimethylamino)pyrolidine-1-yl)piperidine-1-yl)-4-methoxyphenyl) acrylamide]",B (50 nM ≤ GI50 < 500 nM)
17,"C=CC(=O)Nc1cc(Nc2cc(N3OCC[C@@H]3c3ccc(Cl)c(Cl)c3F)ncn2)c(OC)cc1N1CCC(N2CCN(C3CC3)CC2)CC1 [Example 60, N-(2-(4-(4-cyclopropylpiperazine-1-yl)piperidine-1-yl)-5-((6-((R)-3-(3,4-dichloro-2-fluorophenyl)isoxazolidine-2-yl)pyrimidine-4-yl)amino)-4-methoxyphenyl) acrylamide;]",A (GI50 < 50 nM)
